Read-outs that look alike come from different tables or passages of the source.

In test [1] the test system is HSV-1 Strain F. Kind of test: Viral qPCR assay, HSV-1 in MRC5 cells. As to conditions: Human alphaherpesvirus 1, MRC5, 72 h, read-out: HSV1 MRC5 Cell (EC50). In kind it is cell-based, Herpes Simplex Virus type 1. Put shortly: (§1)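 MRC5, MeWo (VZV Street strain, 0.04-0.1 pfu/cell) or Vero/MRC5 (HSV-1 Strain F, 0.0005-0.004 pfu/cell) cells infected in suspension and added to 10-point 3-fold compound dilutions; ~72 h at 37 °C. Lysates qPCR-quantified for viral genome copies against plasmid standard curve, in one format normalized to cellular PPIA; 4-parameter fit gives EC50.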
(Real-time PCR tracks product formation cycle by cycle.)

Test [2] concerns HSV2. Kind of test: Viral qPCR assay, HSV2 in MRC5 cells. In kind it is cell-based, Herpes Simplex Virus type 2. The conditions noted are these: Human alphaherpesvirus 2, MRC5, 72 h, read-out: HSV2 MRC5 Cell (EC50). Put shortly:
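Vero or MRC5 cells infected in suspension with HSV2 and added to a 10-point 3-fold compound dilution, then ~72 h at 37 °C. Lysates assayed by TaqMan qPCR against a plasmid standard curve; copies normalized to controls (with PPIA in one format) and EC50 from 4-parameter fit.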

The target in test [3] is T1, Human cytomegalovirus DNA polymerase (Human cytomegalovirus, UniProt P08546).
T1 construct: made in house; host or cells: SF21 insect cells (baculovirus vector)
T1 sequence (P08546 whole entry): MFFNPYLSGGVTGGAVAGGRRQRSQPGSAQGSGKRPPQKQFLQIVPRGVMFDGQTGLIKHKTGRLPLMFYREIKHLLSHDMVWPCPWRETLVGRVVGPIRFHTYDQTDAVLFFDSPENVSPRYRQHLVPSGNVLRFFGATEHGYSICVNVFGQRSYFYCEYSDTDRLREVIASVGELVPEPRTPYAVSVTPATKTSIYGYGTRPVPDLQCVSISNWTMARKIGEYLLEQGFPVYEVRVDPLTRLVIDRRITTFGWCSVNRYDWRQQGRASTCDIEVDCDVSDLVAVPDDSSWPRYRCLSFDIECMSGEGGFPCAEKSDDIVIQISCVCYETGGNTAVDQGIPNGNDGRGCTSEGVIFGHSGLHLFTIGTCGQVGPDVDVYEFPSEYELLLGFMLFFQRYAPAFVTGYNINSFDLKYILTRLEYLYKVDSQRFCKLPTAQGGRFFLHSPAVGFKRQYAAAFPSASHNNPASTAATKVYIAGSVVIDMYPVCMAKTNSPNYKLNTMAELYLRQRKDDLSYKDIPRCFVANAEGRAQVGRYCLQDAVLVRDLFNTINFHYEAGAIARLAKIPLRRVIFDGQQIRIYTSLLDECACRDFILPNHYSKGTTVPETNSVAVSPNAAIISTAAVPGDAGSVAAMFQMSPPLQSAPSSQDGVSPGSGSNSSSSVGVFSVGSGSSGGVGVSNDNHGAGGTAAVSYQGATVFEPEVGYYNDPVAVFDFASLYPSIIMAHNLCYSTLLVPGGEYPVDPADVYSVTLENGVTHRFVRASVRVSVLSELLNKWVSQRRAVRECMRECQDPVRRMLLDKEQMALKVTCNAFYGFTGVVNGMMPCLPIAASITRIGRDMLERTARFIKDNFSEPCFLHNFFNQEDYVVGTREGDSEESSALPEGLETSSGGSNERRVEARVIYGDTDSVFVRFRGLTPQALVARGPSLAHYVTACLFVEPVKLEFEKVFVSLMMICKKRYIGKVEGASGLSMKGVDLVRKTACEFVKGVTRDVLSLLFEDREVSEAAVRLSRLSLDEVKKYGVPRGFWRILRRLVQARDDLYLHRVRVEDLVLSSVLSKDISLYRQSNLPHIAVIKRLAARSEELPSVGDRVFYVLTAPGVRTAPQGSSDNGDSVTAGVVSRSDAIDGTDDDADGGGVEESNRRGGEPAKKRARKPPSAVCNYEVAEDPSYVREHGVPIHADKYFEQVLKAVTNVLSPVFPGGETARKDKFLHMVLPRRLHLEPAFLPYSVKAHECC
Kind of test: HCMV polymerase assay (AlphaLISA). In kind it is biochemical. As to conditions: HCMV DNA polymerase 0.2 nM, 60 minutes at 37° C.; read-out: CMV (IC50). Put shortly:
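Baculovirus/SF21-expressed polymerase (HCMV 0.2 nM; VZV 0.4 nM) pre-incubated 30 min at room temperature with compound in HEPES pH 7.5 buffer, then 60 min at 37 °C with 1.6 nM DIG-primer/template, sub-nM to 24 nM dNTPs and 0.8 nM biotin-dUTP. AlphaLISA detection; IC50 from 4-parameter fit.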
For orientation: Alpha assays give light when donor and acceptor beads are brought close together.

In test [4] the test system is HSV2. In words: Viral qPCR assay, HSV2 in Vero cells. In kind it is cell-based, Herpes Simplex Virus type 2. As to conditions: read-out: HSV2 VERO Cell (EC50). How it is done: (§2) MRCS cells, Vero cells, and MeWo cells were obtained from ATCC and were maintained at 37° C./5% CO2/90% relative humidity in Minimal Essential Medium with 10% fetal bovine serum, […] L-glutamine, 100 units/ml penicillin and 100 ug/ml streptomycin. Assay plates were prepared by dispensing compounds dissolved in DMSO into wells of 384 well collagen-coated plates using an ECHO acoustic dispenser. Each compound was tested in a 10-point, serial 3-fold dilution. Controls included uninfected cells and infected cells treated only with DMSO. Assays were initiated by mixing selected cells, in suspension, with virus, and dispensing 50 μl/well infected cells to pre-plated compounds. Plates were incubated at 37° C./5% CO2/90% relative humidity for ˜72 hrs to permit genomic replication, and infected cells were lysed by the addition of an equal volume of lysis buffer (10 mM Tris-HCl, pH8, 50 mM KCl, 2 mM MgCl2, 0.45% NP-40, 0.45% Tween-20, and 100 μg/ml proteinase K). An aliquot of the lysate was transferred to a 384-well PCR plate and incubated at 56° C. for 1 hour and then at 95° C. for 10 min. Levels of a viral gene and of the cellular control, PPIA (Thermo Fisher Assay ID=Hs04194521_s1), were measured in separate 10 μL qPCR assays using TaqMan® Gene Expression Master Mix (Applied Biosystems), and an 7900HT Fast Real-Time PCR System with 384-Well Block Module. 7-point, serial 10-fold dilutions of a plasmid standard were run on each plate to generate a standard curve, and genome copies numbers were calculated by plotting experimental Ct onto linear regression of the standard curve. Viral genome copy numbers were normalized by cellular control copy number, and compound effects were normalized to the window defined by the controls. Calculated % effects were fit using a 4-parameter algorithm, and EC50 was reported.
as §2, with “gene” for “gene and of the cellular control, PPIA (Thermo Fisher Assay ID=Hs04194521_s1),”, “in” for “in separate”, “Compound effects on viral” for “Viral”, “number” for “numbers were normalized by cellular control copy number, and compound effects”

Test [5] deals with VZV. Kind of test: Viral qPCR assay, VZV in MRC5 cells. In kind it is cell-based, varicella zoster virus. The conditions noted are these: Human alphaherpesvirus 3, MRC5, 72 h, read-out: VZV MRC5 Cell (IC50). Put shortly: as §1
The target of test [6] is T2, varicella zoster virus DNA polymerase (Varicella-zoster virus, UniProt P09252).
T2 construct: made in house; host or cells: SF21 insect cells (baculovirus vector)
T2 sequence (P09252 whole entry): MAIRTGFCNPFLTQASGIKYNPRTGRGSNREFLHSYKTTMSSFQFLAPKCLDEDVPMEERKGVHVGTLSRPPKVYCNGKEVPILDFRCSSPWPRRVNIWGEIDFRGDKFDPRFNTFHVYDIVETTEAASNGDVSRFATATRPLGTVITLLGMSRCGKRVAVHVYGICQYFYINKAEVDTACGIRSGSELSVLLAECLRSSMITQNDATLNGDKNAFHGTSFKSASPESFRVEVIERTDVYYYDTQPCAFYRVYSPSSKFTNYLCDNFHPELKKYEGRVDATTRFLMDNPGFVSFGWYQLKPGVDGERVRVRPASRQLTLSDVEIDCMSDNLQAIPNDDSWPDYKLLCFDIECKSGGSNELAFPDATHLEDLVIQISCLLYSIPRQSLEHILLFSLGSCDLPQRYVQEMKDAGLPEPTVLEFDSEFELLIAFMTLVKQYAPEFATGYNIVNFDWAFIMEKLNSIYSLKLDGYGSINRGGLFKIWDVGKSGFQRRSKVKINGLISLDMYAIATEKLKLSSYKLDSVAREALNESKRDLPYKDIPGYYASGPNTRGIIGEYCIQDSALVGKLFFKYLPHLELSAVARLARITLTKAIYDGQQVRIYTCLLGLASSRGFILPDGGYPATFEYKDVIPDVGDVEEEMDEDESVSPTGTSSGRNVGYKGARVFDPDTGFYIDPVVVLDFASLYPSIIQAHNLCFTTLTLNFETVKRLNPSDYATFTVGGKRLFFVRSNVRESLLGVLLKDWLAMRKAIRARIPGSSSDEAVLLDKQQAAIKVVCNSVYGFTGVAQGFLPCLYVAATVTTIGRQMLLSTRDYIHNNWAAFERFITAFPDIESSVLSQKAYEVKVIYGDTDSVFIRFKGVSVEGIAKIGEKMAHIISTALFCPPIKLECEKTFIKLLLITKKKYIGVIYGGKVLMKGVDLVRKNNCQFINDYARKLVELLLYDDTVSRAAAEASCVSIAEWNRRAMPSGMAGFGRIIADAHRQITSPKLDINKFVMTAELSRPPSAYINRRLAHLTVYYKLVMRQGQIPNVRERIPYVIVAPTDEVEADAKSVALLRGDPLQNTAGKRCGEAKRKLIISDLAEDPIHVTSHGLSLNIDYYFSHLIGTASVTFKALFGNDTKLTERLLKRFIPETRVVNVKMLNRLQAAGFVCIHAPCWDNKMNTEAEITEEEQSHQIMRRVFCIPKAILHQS
In words: VZV polymerase assay (AlphaLISA). Type of test: biochemical. The conditions noted are these: VZV DNA polymerase 0.4 nM, 60 minutes at 37° C. How it is done: Human cytomegalovirus and varicella zoster virus DNA polymerases were expressed via baculovirus vector in SF21 cells and purified. Heterodimeric nucleic acid substrate used in the herpesvirus polymerase reactions was generated by annealing a 59-mer template to a 17-mer digoxigenin-labeled primer. Polymerase (HCMV final concentration of 0.2 nM; VZV final concentration of 0.4 nM) was combined with an inhibitor compound or DMSO in assay buffer (10 mM HEPES, pH 7.5, 25 mM KCl, 25 mM NaCl, 5 mM MgCl2, 5% glycerol, 0.67 mg/ml bovine serum albuminutes, and 1 mM tris(2-carboxyethyl)phosphine), and this mixture was pre-incubated for 30 minutes at room temperature in 384-well microtiter plates. The polymerization reaction was initiated by the addition of template/primer substrate (final concentration: 1.6 nM), and dNTPs (final concentration: 24 nM dCTP, 24 nMdGTP, 16 nM dATP, 16 nM dTTP, and 0.8 nM biotin-dUTP). After 60 minutes incubation at 37° C., reactions were terminated with quench buffer (25 mM HEPES pH 7.5, 100 mM NaCl, 0.25% Tween-20, 12 mM EDTA, and 1 mg/ml bovine serum albumin). Incorporation of biotinylated UTP was detected with 2.5-ug/ml anti-DIG AlphaLISA acceptor beads and 5-10 ug/ml streptavidin AlphaLISA donor beads (Perkin Elmer). Compound effects were normalized to the window defined by the controls (DMSO only and pre-quenched wells) and were fit using a 4-parameter algorithm to report an IC50.

Test [7] concerns HCMV Strain AD169. In words: Viral qPCR assay, HCMV in MRC-5 cells. Type of test: cell-based, Human cytomegalovirus. As to conditions: read-out: CMV MRC5 Cell (EC50). Put shortly: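 MRC-5 cells infected in suspension with HCMV AD169 (0.05-0.1 pfu/cell) and added to 10-point 3-fold compound dilutions, in growth media or media with 50% FBS. After ~72 h at 37 °C, lysates analysed by TaqMan qPCR against a plasmid standard curve, viral copies normalised to PPIA or not. EC50 from 4-parameter fit.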

Test [8] relates to HSV-1 Strain F. Kind of test: Viral qPCR assay, HSV-1 in Vero cells. In kind it is cell-based, Herpes Simplex Virus type 1. As to conditions: read-out: HSV1 VERO Cell (EC50). How it is done: as §2
as §2, with “gene” for “gene and of the cellular control, PPIA (Thermo Fisher Assay ID=Hs04194521_s1),”, “in” for “in separate”, “Compound effects on viral” for “Viral”, “number” for “numbers were normalized by cellular control copy number, and compound effects”
VZV: Strain Street was maintained as an infected cell stock in MRC-5 cells. It was assayed in MeWo or MRCS cells and was used at 0.04-0.1 pfu/cell. The assays were performed in growth medium. Primer-probe set was Thermo Fisher Assay ID=AIPAEXQ. HSV-1: Strain F Street was assayed in Vero or MRCS cells and was used at 0.0005-0.004 pfu/cell in growth medium. Primer-probe set was Thermo Fisher Assay ID=AIBJZIB

Setting [9] is: Human alphaherpesvirus 2, Vero, 72 h.
Where [10] appears, read: Human betaherpesvirus 5, AD169, MRC5, 72 h.
Where [11] appears, read: Human alphaherpesvirus 1, Vero, 72 h.

In general, EC50 refers to the concentration that produces a half-maximal response. What is called IC50 is the point on the concentration scale where inhibition reaches its midpoint. On to `Cn1nc(C(=O)NCc2ccc(Cl)cc2)c2c1CN(C[C@H]1CCC(=O)N1)C2` [Compound 32], for which the EC50 in test [1] stood at 0.653 µM; in test [2], 500 nM; in test [4] (setting [9]), 165 nM; in test [7] (setting [10]), 420 nM; in test [8] (setting [11]) it was 381 nM. The values for the IC50 in test [3], in test [5] and in test [6] were 14.1 nM, 418 nM and 5.68 nM, respectively.
On to `O=C1CC[C@H](CN2Cc3c(C(=O)NCc4ccc(Cl)cc4)nn(CC4(CF)COC4)c3C2)N1` [Compound 41], for which the values for the IC50 in test [3] and in test [6] were 111 nM and 23.7 nM, respectively. Moreover, the EC50 in test [4] (setting [9]) came to 30600 nM; in test [7] (setting [10]) it was 6320 nM; in test [8] (setting [11]), 20400 nM.
As for `O=C1CC[C@@H](CN2Cc3c(C(=O)NCc4ccc(Cl)cc4)nn(C(F)F)c3C2)N1` [Compound 46], the values for the IC50 in test [3] and in test [6] were 69.7 nM and 23 nM, respectively. Besides, the EC50 in test [4] (~72 hrs) came to 530 nM; in test [7] (MRC5 cells, ~72 hrs), 706 nM; in test [8] (~72 hrs) it was 211 nM.
Consider `[2H]C([2H])([2H])n1nc(C(=O)NCc2ccc(Cl)cc2)c2c1CN(C[C@H]1CCC(=O)N1)C2` [Compound 59], for which the 50% effective concentration (EC50) in test [1] worked out at 7.1 µM; in test [2] it was 3180 nM; in test [4] (setting [9]), 3540 nM; in test [7] (setting [10]), 714 nM; in test [8] (setting [11]), 1370 nM. The IC50 in test [3] turned out to be 70.6 nM; in test [5], 5210 nM; in test [6], 48.6 nM.
In the case of `Cn1nc(C(=O)NCc2ccc(Cl)cc2F)c2c1CN(C[C@H]1CCC(=O)N1)C2` [Compound 61], the results for the IC50 in test [3] and in test [6] were 346 nM and 192 nM, respectively. The figures for the EC50 in test [4] (setting [9]), in test [7] (setting [10]) and in test [8] (setting [11]) were 37700 nM, 1980 nM and 30800 nM, respectively.
`CC(C1CC(F)C(=O)N1)N1Cc2c(C(=O)NCc3ccc(Cl)cc3)nn(C)c2C1` (stereo not drawn) [Compound 76]: the IC50 in test [3] came to 30 nM; in test [6], 36.1 nM. Besides, the EC50 amounted to 1590 nM in test [4] (~72 hrs); 3610 nM in test [7] (MRC5 cells, ~72 hrs); 1410 nM in test [8] (~72 hrs).
`CC(C1CC(F)(F)C(=O)N1)N1Cc2c(C(=O)NCc3ccc(Cl)cc3)nn(C)c2C1` (stereo not drawn) [Compound 86]: the IC50 was found to be 18.2 nM in test [3] and 37 nM in test [6]. Besides, the EC50 in test [4] (~72 hrs) was 2360 nM; in test [7] (MRC5 cells, ~72 hrs) it was 616 nM; in test [8] (~72 hrs), 1710 nM.
Take `CC(C)[C@H]1c2c(c(C(=O)NCc3ccc(Cl)cc3)nn2C)CN1C[C@@H]1CCC(=O)N1` [Compound 100]: the IC50 in test [3] is 7.62 nM; in test [6], 4.84 nM. Besides, the results for the EC50 in test [4] (setting [9]), in test [7] (setting [10]) and in test [8] (setting [11]) were 196 nM, 222 nM and 217 nM, respectively.
In the case of `C[C@@H]1c2c(C(=O)NCc3ccc(Cl)cc3)nn(C)c2CN1C[C@H]1CCC(=O)N1` [Compound 126], the IC50 was 522 nM in test [3] and 159 nM in test [6]. In addition, the EC50 in test [4] (~72 hrs) amounted to 1960 nM; in test [7] (MRC5 cells, ~72 hrs), 6110 nM; in test [8] (~72 hrs), 1190 nM.
As to `O=C1CCC(CC2Cc3c(C(=O)NCc4ccc(Cl)cc4)nn(CCN4CC(F)(F)C4)c3C2)N1` (stereo not drawn) [Compound 131], the IC50 in test [3] is 16.8 nM; in test [6], 11.7 nM. Also, the EC50 in test [4] (setting [9]) worked out at 7020 nM; in test [7] (setting [10]), 1580 nM; in test [8] (setting [11]), 7280 nM.
The like results for `O=C1CC[C@H](CC2Cc3c(C(=O)NCc4ccc(Cl)cc4)nn(CCN4CC(F)C4)c3C2)N1` (stereo partly drawn) [Compound 132] were, in that order, 21.6 nM, 12.8 nM, 9330 nM, 2930 nM and 7160 nM.
The like results for `CN1CC(n2nc(C(=O)NCc3ccc(Cl)cc3)c3c2CC(C[C@H]2CCC(=O)N2)C3)C1` (stereo partly drawn) [Compound 137] were, in that order, 174 nM, 50 nM, 55700 nM, 7730 nM and 26100 nM.

(Values after patent US20240059693A1, “FUSED BICYCLIC PYRAZOLE DERIVATIVES AND METHODS OF USE THEREOF FOR THE TREATMENT OF HERPESVIRUSES” (Merck Sharp & Dohme LLC, priority 2020, published 2024).)
